# Data from ChEMBL document CHEMBL1143309, “Bisubstrate Inhibitors of the MYST HATs Esa1 and Tip60” (Bioorg Med Chem, 2009).
# How the values were obtained:
# [1] = biological target: Histone acetyltransferase p300 (Homo sapiens, UniProt Q09472); assay: Inhibition of recombinant p300
# [2] = Inhibition of His6x-tagged yeast recombinant Esa1 (105-445) expressed in Escherichia coli BL21 (DE3) by liquid scintillation; parameters: species or system Saccharomyces cerevisiae
# [3] = biological target: T1, Histone acetyltransferase KAT5 (Homo sapiens, UniProt Q92993); assay: Inhibition of recombinant Tip60 (1-513) expressed in Escherichia coli BL21 (DE3) by liquid scintillation
# [4] = biological target: Histone acetyltransferase KAT2B (Homo sapiens, UniProt Q92831); assay: Inhibition of PCAF HAT domain (493-658) expressed in Escherichia coli BL21 (DE3)
# [5] = biological target: T1, Histone acetyltransferase KAT5; assay: Inhibition of TIP60 in human HeLa cell extracts by ELISA
# Histone acetyltransferase p300, sequence (Q09472 whole entry): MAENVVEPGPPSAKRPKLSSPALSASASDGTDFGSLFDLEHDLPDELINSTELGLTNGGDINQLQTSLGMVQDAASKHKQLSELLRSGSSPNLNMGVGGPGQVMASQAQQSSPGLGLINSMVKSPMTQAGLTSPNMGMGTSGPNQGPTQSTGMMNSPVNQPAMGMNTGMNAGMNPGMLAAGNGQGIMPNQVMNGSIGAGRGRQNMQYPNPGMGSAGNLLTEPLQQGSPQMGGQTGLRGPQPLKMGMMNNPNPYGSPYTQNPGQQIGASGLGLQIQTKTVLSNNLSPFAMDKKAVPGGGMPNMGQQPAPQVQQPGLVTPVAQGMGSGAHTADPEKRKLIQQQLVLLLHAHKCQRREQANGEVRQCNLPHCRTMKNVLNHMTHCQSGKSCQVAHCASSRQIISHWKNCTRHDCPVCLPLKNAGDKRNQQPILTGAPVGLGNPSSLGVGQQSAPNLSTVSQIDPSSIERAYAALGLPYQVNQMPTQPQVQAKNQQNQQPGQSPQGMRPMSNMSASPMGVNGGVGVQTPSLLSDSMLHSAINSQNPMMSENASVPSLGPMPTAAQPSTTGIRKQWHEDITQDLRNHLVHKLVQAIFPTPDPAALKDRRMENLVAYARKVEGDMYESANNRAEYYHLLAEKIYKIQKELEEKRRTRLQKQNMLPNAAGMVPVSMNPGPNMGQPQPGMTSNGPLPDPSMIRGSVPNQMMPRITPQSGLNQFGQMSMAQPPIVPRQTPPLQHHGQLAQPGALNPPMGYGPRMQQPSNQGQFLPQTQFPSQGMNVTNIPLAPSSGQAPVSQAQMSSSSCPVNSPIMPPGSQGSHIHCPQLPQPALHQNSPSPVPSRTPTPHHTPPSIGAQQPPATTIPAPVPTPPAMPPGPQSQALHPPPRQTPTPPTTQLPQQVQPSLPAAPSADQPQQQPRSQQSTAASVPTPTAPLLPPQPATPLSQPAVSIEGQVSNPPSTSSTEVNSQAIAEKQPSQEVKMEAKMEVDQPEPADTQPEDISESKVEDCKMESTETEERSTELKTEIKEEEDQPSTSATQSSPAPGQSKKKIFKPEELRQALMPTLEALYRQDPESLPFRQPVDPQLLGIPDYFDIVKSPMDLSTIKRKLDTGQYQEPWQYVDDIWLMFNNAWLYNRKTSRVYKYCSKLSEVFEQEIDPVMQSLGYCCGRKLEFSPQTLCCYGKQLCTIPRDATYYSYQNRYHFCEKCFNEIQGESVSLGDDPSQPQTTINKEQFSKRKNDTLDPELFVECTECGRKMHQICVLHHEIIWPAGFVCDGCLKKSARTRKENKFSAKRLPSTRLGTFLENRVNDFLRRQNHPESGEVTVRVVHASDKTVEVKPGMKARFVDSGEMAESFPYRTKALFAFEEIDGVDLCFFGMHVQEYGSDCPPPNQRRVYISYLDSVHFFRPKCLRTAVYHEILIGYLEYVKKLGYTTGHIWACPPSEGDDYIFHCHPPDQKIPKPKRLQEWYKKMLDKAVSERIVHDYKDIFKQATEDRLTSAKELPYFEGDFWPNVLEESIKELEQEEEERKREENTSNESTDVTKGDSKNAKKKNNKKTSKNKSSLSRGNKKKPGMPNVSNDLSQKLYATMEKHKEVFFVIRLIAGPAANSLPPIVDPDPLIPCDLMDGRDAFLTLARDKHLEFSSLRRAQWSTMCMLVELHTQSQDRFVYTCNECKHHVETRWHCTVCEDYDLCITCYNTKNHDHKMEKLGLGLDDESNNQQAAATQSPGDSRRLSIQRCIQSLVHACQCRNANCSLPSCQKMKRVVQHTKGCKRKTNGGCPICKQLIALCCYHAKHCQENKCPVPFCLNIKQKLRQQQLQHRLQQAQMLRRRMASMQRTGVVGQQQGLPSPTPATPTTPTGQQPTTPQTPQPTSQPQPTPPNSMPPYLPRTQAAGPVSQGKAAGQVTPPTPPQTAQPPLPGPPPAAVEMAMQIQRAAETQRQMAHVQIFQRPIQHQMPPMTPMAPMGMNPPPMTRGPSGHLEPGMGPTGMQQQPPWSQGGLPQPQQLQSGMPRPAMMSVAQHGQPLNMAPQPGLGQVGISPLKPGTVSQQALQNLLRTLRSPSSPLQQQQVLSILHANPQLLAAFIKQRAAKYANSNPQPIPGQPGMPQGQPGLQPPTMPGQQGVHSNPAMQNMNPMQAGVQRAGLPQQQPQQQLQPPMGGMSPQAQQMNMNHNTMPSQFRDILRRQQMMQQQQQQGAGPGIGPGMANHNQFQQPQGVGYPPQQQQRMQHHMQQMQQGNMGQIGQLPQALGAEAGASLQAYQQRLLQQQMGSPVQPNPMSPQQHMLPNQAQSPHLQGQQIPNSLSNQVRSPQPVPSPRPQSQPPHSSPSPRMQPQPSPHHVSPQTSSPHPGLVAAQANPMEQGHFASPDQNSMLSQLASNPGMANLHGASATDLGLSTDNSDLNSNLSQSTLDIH
# Histone acetyltransferase KAT2B, sequence (Q92831 whole entry, the tested form may be a part): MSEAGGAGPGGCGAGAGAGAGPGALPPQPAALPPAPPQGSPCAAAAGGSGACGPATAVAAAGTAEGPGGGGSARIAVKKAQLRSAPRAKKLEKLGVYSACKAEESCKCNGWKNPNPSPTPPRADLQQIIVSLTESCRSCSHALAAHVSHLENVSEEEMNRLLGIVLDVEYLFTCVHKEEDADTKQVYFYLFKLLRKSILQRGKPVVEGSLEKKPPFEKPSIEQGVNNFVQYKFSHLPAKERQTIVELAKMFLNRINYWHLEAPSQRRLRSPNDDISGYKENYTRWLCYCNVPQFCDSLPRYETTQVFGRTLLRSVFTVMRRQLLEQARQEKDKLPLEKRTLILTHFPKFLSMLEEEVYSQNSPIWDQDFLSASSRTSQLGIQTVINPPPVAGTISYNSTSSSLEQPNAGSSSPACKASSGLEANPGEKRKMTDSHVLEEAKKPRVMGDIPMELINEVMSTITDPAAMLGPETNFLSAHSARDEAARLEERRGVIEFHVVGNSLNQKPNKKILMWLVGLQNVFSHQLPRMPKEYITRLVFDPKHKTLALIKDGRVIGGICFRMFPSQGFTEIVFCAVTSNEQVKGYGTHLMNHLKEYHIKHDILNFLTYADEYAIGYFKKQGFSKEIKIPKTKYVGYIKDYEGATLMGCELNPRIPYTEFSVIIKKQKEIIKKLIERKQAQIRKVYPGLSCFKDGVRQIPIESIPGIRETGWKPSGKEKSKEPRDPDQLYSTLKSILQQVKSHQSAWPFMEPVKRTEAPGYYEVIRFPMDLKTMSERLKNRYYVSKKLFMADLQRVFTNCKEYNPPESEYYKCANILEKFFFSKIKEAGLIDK
# T1 sequence (Q92993 whole entry, the tested form may be a part): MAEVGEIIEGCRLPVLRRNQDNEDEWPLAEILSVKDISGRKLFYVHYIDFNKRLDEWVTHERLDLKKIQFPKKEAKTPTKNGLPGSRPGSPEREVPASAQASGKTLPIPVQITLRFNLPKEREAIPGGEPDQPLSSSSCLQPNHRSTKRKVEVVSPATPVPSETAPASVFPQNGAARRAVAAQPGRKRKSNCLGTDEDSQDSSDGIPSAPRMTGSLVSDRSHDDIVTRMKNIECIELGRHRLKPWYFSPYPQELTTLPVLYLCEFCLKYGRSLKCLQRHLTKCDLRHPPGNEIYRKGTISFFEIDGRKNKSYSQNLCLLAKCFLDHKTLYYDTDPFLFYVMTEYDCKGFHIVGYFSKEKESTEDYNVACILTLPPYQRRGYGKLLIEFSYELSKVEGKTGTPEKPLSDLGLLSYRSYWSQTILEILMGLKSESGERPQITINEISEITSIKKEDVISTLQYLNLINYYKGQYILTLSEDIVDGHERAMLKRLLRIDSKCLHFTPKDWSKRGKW
IC50 [1] [µM],IC50 [2] [µM],IC50 [3] [µM],IC50 [4] [µM],IC50 [5] [µM],Compound
0.98,7,29.8,108,,CC(=O)N[C@@H](CCCCNC(=O)CSCCNC(=O)CCNC(=O)[C@H](O)C(C)(C)COP(=O)(O)OP(=O)(O)OC[C@H]1O[C@@H](n2cnc3c(N)ncnc32)[C@H](O)[C@@H]1OP(=O)(O)O)C(N)=O
> 1000,297,375,667,9,C=CC/C=C\C/C=C\CCCCCCCc1cccc(O)c1C(=O)O [ANACARDIC ACID]
,> 150,> 200,,,COc1cc(/C=C/C(=O)CC(=O)/C=C/c2ccc(O)c(OC)c2)ccc1O [CURCUMIN]
45.9,68.6,82.3,41.9,,CC(C)(COP(=O)(O)OP(=O)(O)OC[C@H]1O[C@@H](n2cnc3c(N)ncnc32)[C@H](O)[C@@H]1OP(=O)(O)O)[C@@H](O)C(=O)NCCC(=O)NCCS [COENZYME_A]
